Measured values as given in DBAASP.
In brackets after ≈: the same amount, converted by molar mass. Several values for one entry are separate records, joined by “and”; a condition that tells them apart may be missing. Identical values can stand only once. One block for each compound: values may come before it.

Assays:
Assay in all cases: ≥ marks a high value that may be exact or a test limit, other limits are often not marked, values filed in µg/mL are converted to µM
[1] = system: Bacillus subtilis MTCC 14416
[2] = system: Enterococcus faecalis ATCC 29212
Escherichia coli MG1655 = system: Escherichia coli MG1655
[3] = system: Pseudomonas aeruginosa ATCC 27853
[4] = system: Staphylococcus aureus ATCC 43300
[5] = system: Staphylococcus aureus MTCC 9542
Vibrio cholerae = system: Vibrio cholerae
[6] = system: Escherichia coli DH5alpha
[7] = system: Escherichia coli NBRC 3972
[8] = system: Proteus vulgaris NBRC 3045
[9] = system: Pseudomonas aeruginosa NBRC 13275
Staphylococcus aureus = system: Staphylococcus aureus
[10] = system: Staphylococcus epidermidis
[11] = system: Acinetobacter baumannii MTCC 9829
[12] = system: Alcaligenes faecalis MTCC 1937
[13] = system: Alkalihalobacillus alcalophilus MTCC 860
[14] = system: Bordetella bronchiseptica MTCC 6837
[15] = system: Citrobacter freundii MTCC 1658
[16] = system: Citrobacter koseri MTCC 1657
[17] = system: Corynebacterium glutamicum MTCC 2679
[18] = system: Enterococcus faecalis MTCC 439
[19] = system: Escherichia coli K12 MG1655
[20] = system: Haemophilus influenzae MTCC 621
[21] = system: Klebsiella aerogenes MTCC 111
[22] = system: Klebsiella oxytoca MTCC 2275
[23] = system: Klebsiella pneumoniae MTCC 7407
[24] = system: Pluralibacter gergoviae MTCC 3826
[25] = system: Proteus mirabilis MTCC 3158
[26] = system: Proteus vulgaris MTCC 1771
[27] = system: Pseudomonas aeruginosa MTCC 3542
[28] = system: Salmonella enterica MTCC 9844
[29] = system: Salmonella enterica subsp. enterica serovar Typhimurium ATCC 14028
[30] = system: Shigella boydii MTCC 11947
[31] = system: Shigella flexneri MTCC 1457
[32] = system: Staphylococcus aureus MTCC 3160
[33] = system: Staphylococcus haemolyticus MTCC 3383
[34] = system: Stenotrophomonas maltophilia MTCC 1890
[35] = system: Vibrio cholerae MTCC 3904
[36] = system: Candida albicans ATCC 90028
[37] = system: Cryptococcus neoformans B3501
[38] = system: Escherichia coli ATCC 25922
Escherichia coli = system: Escherichia coli
[39] = system: Klebsiella pneumoniae ATCC 13833
Klebsiella pneumoniae = system: Klebsiella pneumoniae
[40] = system: Microsporum canis MW768151
Microsporum canis = system: Microsporum canis
Proteus mirabilis = system: Proteus mirabilis
[41] = system: Pseudomonas aeruginosa PA002
[42] = system: Pseudomonas aeruginosa PA006
[43] = system: Pseudomonas aeruginosa PAO1
[44] = system: Staphylococcus cohnii MW767053
[45] = system: Staphylococcus epidermidis ATCC 12228
[46] = system: Staphylococcus haemolyticus
[47] = system: Staphylococcus pseudintermedius MW767056
[48] = system: Staphylococcus pseudintermedius
Staphylococcus sciuri = system: Staphylococcus sciuri
Staphylococcus simulans = system: Staphylococcus simulans
[49] = system: Trichophyton mentagrophytes
[50] = system: Trichophyton rubrum ATCC 28189

MIC [1]: 24.5 µM (≈ 50 µg/mL)
MIC [2]: 24.5 µM (≈ 50 µg/mL)
MIC (Escherichia coli MG1655): 12.3 µM (≈ 25 µg/mL)
MIC [3]: > 49 µM
MIC [4]: 24.5 µM (≈ 50 µg/mL)
MIC [5]: 24.5 µM (≈ 50 µg/mL)
Structure (SMILES): CC[C@H](C)[C@H](N)C(=O)N[C@@H](C)C(=O)NCC(=O)N[C@@H](CC(C)C)C(=O)N[C@@H](C)C(=O)N[C@@H](C)C(=O)N[C@@H](CC(N)=O)C(=O)N[C@@H](Cc1ccccc1)C(=O)N[C@@H](CC(C)C)C(=O)N1CCC[C@H]1C(=O)N[C@@H](CCC(N)=O)C(=O)N[C@H](C(=O)N[C@@H](CC(C)C)C(=O)N[C@@H](CS)C(=O)N[C@@H](CCCCN)C(=O)N[C@H](C(=O)N[C@@H](C)C(=O)N[C@@H](CCCN=C(N)N)C(=O)N[C@@H](CCCCN)C(N)=O)[C@@H](C)CC)[C@@H](C)CC [IAGLAANFLPQILCKIARK]
MIC (Vibrio cholerae): 24.5 µM (≈ 50 µg/mL)

MIC [6]: 25 µM (≈ 55.8 µg/mL)
MIC [7]: 12.5 µM (≈ 27.9 µg/mL)
MIC [8]: ≥ 100 µM
MIC [9]: 3.12 µM (≈ 6.98 µg/mL)
MIC (Staphylococcus aureus): 100 µM (≈ 223 µg/mL)
MIC [10]: 6.25 µM (≈ 14 µg/mL)
Structure (SMILES): CC(C)C[C@H](NC(=O)[C@H](CCCCN)NC(=O)CNC(=O)[C@H](CCCCN)NC(=O)[C@H](CC(C)C)NC(=O)[C@H](CCCCN)NC(=O)[C@H](CC(C)C)NC(=O)[C@H](CCCCN)NC(=O)[C@H](C)NC(=O)CNC(=O)[C@H](CC(C)C)NC(=O)[C@H](CCCCN)NC(=O)[C@H](CC(C)C)NC(=O)[C@H](CCCCN)NC(=O)[C@H](C)NC(=O)[C@H](CC(C)C)NC(=O)[C@H](CCCCN)NC(=O)[C@H](CCCCN)NC(=O)[C@@H](N)CCCCN)C(=O)NCC(=O)N[C@@H](C)C(N)=O [KKKLAKLKLGAKLKLKGKLGA]

Structure (SMILES): CC[C@H](C)[C@H](NC(=O)[C@H](C)NC(=O)[C@@H]1CCCN1C(=O)[C@@H]1CCCN1C(=O)[C@H](CC(C)C)NC(=O)[C@H](Cc1cnc[nH]1)NC(=O)[C@H](CCCCN)NC(=O)[C@H](C)NC(=O)[C@@H](NC(=O)CNC(=O)[C@H](CCCCN)NC(=O)[C@H](C)NC(=O)[C@@H](NC(=O)[C@@H](N)CCC(=O)O)[C@@H](C)O)C(C)C)C(=O)N[C@@H](C)C(=O)O [ETAKGVAKHLPPAIA]
MIC [11]: ≥ 85.2 µM
MIC [12]: ≥ 85.2 µM
MIC [13]: ≥ 85.2 µM
MIC [14]: ≥ 85.2 µM
MIC [15]: ≥ 85.2 µM
MIC [16]: ≥ 85.2 µM
MIC [17]: ≥ 85.2 µM
MIC [18]: ≥ 85.2 µM
MIC [19]: ≥ 85.2 µM
MIC [20]: ≥ 85.2 µM
MIC [21]: ≥ 85.2 µM
MIC [22]: ≥ 85.2 µM
MIC [23]: ≥ 85.2 µM
MIC [24]: ≥ 85.2 µM
MIC [25]: ≥ 85.2 µM
MIC [26]: ≥ 85.2 µM
MIC [27]: ≥ 85.2 µM
MIC [28]: ≥ 85.2 µM
MIC [29]: > 85.2 µM
MIC [30]: ≥ 85.2 µM
MIC [31]: ≥ 85.2 µM
MIC [32]: ≥ 85.2 µM
MIC [33]: ≥ 85.2 µM
MIC [34]: ≥ 85.2 µM
MIC [35]: ≥ 85.2 µM

MIC [36]: 1.67 µM (≈ 3.28 µg/mL)
MIC [37]: 2 µM (≈ 3.92 µg/mL)
MIC [2]: 8.15 µM (≈ 16 µg/mL)
MIC [38]: 2.04 µM and 2 µM
MIC (Escherichia coli): 1.44 µM and 2.88 µM
MIC [39]: 1 µM (≈ 1.96 µg/mL)
MIC (Klebsiella pneumoniae): 5.77 µM (≈ 11.3 µg/mL)
MIC [40]: 0.51 µM (≈ 1 µg/mL)
MIC (Microsporum canis): 1.44 µM (≈ 2.83 µg/mL)
MIC (Proteus mirabilis): ≥ 65.2 µM
MIC [3]: 4.08 µM and 1.67 µM and 4 µM
MIC [41]: 8.15 µM (≈ 16 µg/mL)
MIC [42]: 2.04 µM (≈ 4 µg/mL)
MIC [43]: 4.08 µM (≈ 8 µg/mL)
MIC [44]: 16.3 µM (≈ 32 µg/mL)
MIC [45]: 1 µM (≈ 1.96 µg/mL)
MIC [47]: ≥ 130 µM
MIC [48]: ≥ 32.6 µM
MIC (Staphylococcus sciuri): ≥ 130 µM
MIC (Staphylococcus simulans): ≥ 32.6 µM
MIC [49]: 0.51 µM (≈ 1 µg/mL)
MIC [50]: 8 µM (≈ 15.7 µg/mL)
Structure (SMILES): CC[C@H](C)[C@H](NC(=O)[C@H](Cc1ccccc1)NC(=O)CNC(=O)[C@H](CCCCN)NC(=O)[C@@H](NC(=O)[C@H](Cc1ccccc1)NC(=O)[C@H](CCCCN)NC(=O)[C@H](CCCN=C(N)N)NC(=O)[C@@H](NC(=O)[C@@H](NC(=O)[C@H](CCCN=C(N)N)NC(=O)[C@@H](NC(=O)[C@H](C)NC(=O)[C@H](Cc1c[nH]c2ccccc12)NC(=O)[C@@H](N)CCCCN)C(C)C)[C@@H](C)CC)[C@@H](C)CC)[C@@H](C)CC)C(=O)N[C@@H](CO)C(N)=O [KWAVRIIRKFIKGFIS]
MIC [46]: ≥ 65.2 µM
